One assay relates to KB (nasopharyngeal). As to the kind of experiment: Cytotoxicity. It counts as cell-based. As to conditions: KB cell line.
For the compound `COc1ccc2c3c(c4cc(OC)c(OC)cc4c2c1)C[C@H]1CCCCN1C3` [crypto-pleurine, R-cryptopleurine, reference compound], the “GI50 KB” value is 0.00151 ± 0.00033 µM. On the same count and under the same terms, the result for `COc1ccc2c3c(c4cc(OC)c(OC)cc4c2c1)C[C@H]1COCCN1C3` [Compound 11, (S)-13-Oxa-cryptopleurine] reads 0.037 ± 0.009 µM; that for `COc1ccc2c3c(c4cc(OC)c(OC)cc4c2c1)C[C@H]1CCCN1C3` [R-antofine, reference compound], 0.036 ± 0.008 µM.

Regarding `COc1ccc2c3c(c4cc(OC)c(OC)cc4c2c1)C[C@H]1CCCCCN1C3` [Compound 15], the “GI50 KB” value amounted to 0.102 ± 0.019 µM. On the same count and under the same terms, under `COc1ccc2c3c(c4cc(OC)c(OC)cc4c2c1)C[C@H]1CCOCCN1C3` [Compound 16] stands 0.068 ± 0.01 µM.

The next assay deals with A549, DU-145, KB, HCT-8 cancer cell lines. In words: Cytotoxicity screen, stated over the panel of four cancer cell lines. It counts as cell-based. The conditions noted are these: read-out: GI50 (all tested cancer cell lines).
Regarding `COc1ccc2c3c(c4cc(OC)c(OC)cc4c2c1)C[C@H]1CCOCN1C3` [Compound 13, (S)-12-Oxa-cryptopleurine], the GI50 was greater than 1 µM. On the same count and under the same terms, the result for `COc1ccc2c3c(c4cc(OC)c(OC)cc4c2c1)C[C@H]1CCN(c2ccccc2)CN1C3` [Compound 10b] reads greater than 20 µM; that for `COc1ccc2c3c(c4cc(OC)c(OC)cc4c2c1)C[C@H]1CCN(Cc2ccccc2)CN1C3` [Compound 10d], greater than 20 µM; that for `COc1ccc2c3c(c4cc(OC)c(OC)cc4c2c1)C[C@@H]1CCOCN1C3` [Compound 14, (R)-12-Oxa-cryptopleurine], greater than 1 µM.

Staying with this assay, now noted: read-out: average GI50.
As to `COc1ccc2c3c(c4cc(OC)c(OC)cc4c2c1)C[C@H]1CN(c2ccccc2)CN1C3` [Compound 3f], the GI50 is greater than 20 µM.

The values above are taken from article PMC3141083 (Journal of medicinal chemistry, 2011).
